Experimental data reported in PubChem BioAssay (NCI).
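Method: 48-hour compound exposure of cells in 96-well plates, five concentrations, linear interpolation of endpoints. Abbreviation: GI50, concentration required for 50% inhibition of growth. TGI is the concentration that stops growth completely.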

Key:
Test in all cases: NCI-60 cell line screen, 48 h
SK-OV-3 ovarian = test system: SK-OV-3 ovarian
MDA-MB-231 breast = test system: MDA-MB-231 breast
SK-MEL-28 melanoma = test system: SK-MEL-28 melanoma
SNB-75 CNS = test system: SNB-75 CNS
MALME-3M melanoma = test system: MALME-3M melanoma
OVCAR-8 ovarian = test system: OVCAR-8 ovarian
SK-MEL-2 melanoma = test system: SK-MEL-2 melanoma
PC-3 prostate = test system: PC-3 prostate
UACC-62 melanoma = test system: UACC-62 melanoma
COLO 205 colon = test system: COLO 205 colon
NCI-H522 lung = test system: NCI-H522 lung
UACC-257 melanoma = test system: UACC-257 melanoma
RXF 393 renal = test system: RXF 393 renal
SF-295 CNS = test system: SF-295 CNS
RPMI-8226 leukemia = test system: RPMI-8226 leukemia
HS 578T breast = test system: HS 578T breast
SN12C renal = test system: SN12C renal
NCI/ADR-RES ovarian = test system: NCI/ADR-RES ovarian
SNB-19 CNS = test system: SNB-19 CNS
NCI-H226 lung = test system: NCI-H226 lung
MCF7 breast = test system: MCF7 breast
OVCAR-5 ovarian = test system: OVCAR-5 ovarian
DU-145 prostate = test system: DU-145 prostate
SK-MEL-5 melanoma = test system: SK-MEL-5 melanoma
OVCAR-4 ovarian = test system: OVCAR-4 ovarian
A498 renal = test system: A498 renal
EKVX NSCLC = test system: EKVX NSCLC
ACHN renal = test system: ACHN renal
NCI-H23 lung = test system: NCI-H23 lung
K-562 leukemia = test system: K-562 leukemia
KM12 colon = test system: KM12 colon
NCI-H460 lung = test system: NCI-H460 lung
HOP-92 NSCLC = test system: HOP-92 NSCLC
HL-60(TB) leukemia = test system: HL-60(TB) leukemia
U251 CNS = test system: U251 CNS
HCC-2998 colon = test system: HCC-2998 colon
SF-539 CNS = test system: SF-539 CNS
MOLT-4 leukemia = test system: MOLT-4 leukemia
OVCAR-3 ovarian = test system: OVCAR-3 ovarian
LOX IMVI melanoma = test system: LOX IMVI melanoma
CCRF-CEM leukemia = test system: CCRF-CEM leukemia
UO-31 renal = test system: UO-31 renal
MDA-MB-435 = test system: MDA-MB-435
HCT-15 colon = test system: HCT-15 colon
HT29 colon = test system: HT29 colon
MDA-MB-468 breast = test system: MDA-MB-468 breast
SW-620 colon = test system: SW-620 colon
A549 NSCLC = test system: A549 NSCLC
TK-10 renal = test system: TK-10 renal
SR leukemia = test system: SR leukemia
M14 melanoma = test system: M14 melanoma
CAKI-1 renal = test system: CAKI-1 renal
SF-268 CNS = test system: SF-268 CNS
BT-549 breast = test system: BT-549 breast
786-0 renal = test system: 786-0 renal
IGROV1 ovarian = test system: IGROV1 ovarian
HOP-62 NSCLC = test system: HOP-62 NSCLC
T-47D breast = test system: T-47D breast
HCT-116 colon = test system: HCT-116 colon

## COc1ccc(-c2nc3ccccc3n2CC(=O)N=Nc2c(O)[nH]c3ccc(OC)cc23)cc1
SK-OV-3 ovarian
  GI50: 15.6 µM
  TGI: 30.8 µM
MDA-MB-231 breast
  GI50: 5.76 µM
  TGI: 19.2 µM
SK-MEL-28 melanoma
  GI50: 4.4 µM
  TGI: 19.9 µM
SNB-75 CNS
  GI50: 7.41 µM
  TGI: 22.1 µM
MALME-3M melanoma
  GI50: 3.28 µM
  TGI: 12.7 µM
OVCAR-8 ovarian
  GI50: 2.3 µM
  TGI: 5.85 µM
SK-MEL-2 melanoma
  GI50: 17.6 µM
  TGI: 33.6 µM
PC-3 prostate
  GI50: 12.1 µM
  TGI: 42.3 µM
UACC-62 melanoma
  GI50: 11.2 µM
  TGI: 23.3 µM
COLO 205 colon
  GI50: 16.1 µM
  TGI: 33.9 µM
NCI-H522 lung
  GI50: 6.18 µM
  TGI: 22.9 µM
UACC-257 melanoma
  GI50: 2.56 µM
  TGI: 7.16 µM
RXF 393 renal
  GI50: 1.87 µM
  TGI: 3.59 µM
SF-295 CNS
  GI50: 14.3 µM
  TGI: 34.7 µM
RPMI-8226 leukemia
  GI50: 13.2 µM
  TGI: > 100 µM
HS 578T breast
  GI50: 6.39 µM
  TGI: 32.3 µM
SN12C renal
  GI50: 6.02 µM
  TGI: 19.3 µM
NCI/ADR-RES ovarian
  GI50: 2.02 µM
  TGI: 5.18 µM
SNB-19 CNS
  GI50: 15.3 µM
  TGI: 29.5 µM
NCI-H226 lung
  GI50: 1.8 µM
  TGI: 3.99 µM
MCF7 breast
  GI50: 2.01 µM
  TGI: 4.72 µM
OVCAR-5 ovarian
  GI50: 13.8 µM
  TGI: 33.6 µM
DU-145 prostate
  GI50: 4.53 µM
  TGI: 15.5 µM
SK-MEL-5 melanoma
  GI50: 5.37 µM
  TGI: 18.3 µM
OVCAR-4 ovarian
  GI50: 11.6 µM
  TGI: 30 µM
A498 renal
  GI50: 15.4 µM
  TGI: 29.6 µM
EKVX NSCLC
  GI50: 11.2 µM
  TGI: 28.2 µM
ACHN renal
  GI50: 2.39 µM
  TGI: 6.62 µM
NCI-H23 lung
  GI50: 10.4 µM
  TGI: 23.5 µM
K-562 leukemia
  GI50: 4.1 µM
  TGI: 95.8 µM
KM12 colon
  GI50: 15.2 µM
  TGI: 33.8 µM
NCI-H460 lung
  GI50: 4.22 µM
  TGI: 15.4 µM
HOP-92 NSCLC
  GI50: 8.19 µM
  TGI: 26.4 µM
HL-60(TB) leukemia
  GI50: 2.83 µM
  TGI: 13.5 µM
U251 CNS
  GI50: 12.5 µM
  TGI: 25.3 µM
HCC-2998 colon
  GI50: 6.54 µM
  TGI: 19 µM
SF-539 CNS
  GI50: 2.95 µM
  TGI: 9.35 µM
MOLT-4 leukemia
  GI50: 5.71 µM
  TGI: 36.5 µM
OVCAR-3 ovarian
  GI50: 12.5 µM
  TGI: 26.6 µM
LOX IMVI melanoma
  GI50: 2.02 µM
  TGI: 4.76 µM
CCRF-CEM leukemia
  GI50: 27.5 µM
  TGI: > 100 µM
UO-31 renal
  GI50: 11.2 µM
  TGI: 23.2 µM
MDA-MB-435
  GI50: 4.09 µM
  TGI: 15.1 µM
HCT-15 colon
  GI50: 3.01 µM
  TGI: 11.7 µM
HT29 colon
  GI50: 2.17 µM
  TGI: 4.9 µM
MDA-MB-468 breast
  GI50: 2 µM
  TGI: 5.17 µM
SW-620 colon
  GI50: 4.46 µM
  TGI: 19.7 µM
A549 NSCLC
  GI50: 4.51 µM
  TGI: 17.5 µM
TK-10 renal
  GI50: 10.9 µM
  TGI: 23.1 µM
SR leukemia
  GI50: 2.52 µM
  TGI: 25.7 µM
M14 melanoma
  GI50: 3.15 µM
  TGI: 11 µM
CAKI-1 renal
  GI50: 2.77 µM
  TGI: 8.75 µM
SF-268 CNS
  GI50: 13.3 µM
  TGI: 31.6 µM
BT-549 breast
  GI50: 2.52 µM
  TGI: 6.47 µM
786-0 renal
  GI50: 1.77 µM
  TGI: 4.26 µM
IGROV1 ovarian
  GI50: 12.3 µM
  TGI: 25.4 µM
HOP-62 NSCLC
  GI50: 17.5 µM
  TGI: 35.1 µM
T-47D breast
  GI50: 3.46 µM
  TGI: 16.3 µM

## O=C(c1ccc(Cl)cc1)C1[C@H](c2ccccc2Cl)[C@@H](c2ccccc2)NC12C(=O)Nc1ccc(Cl)cc12 (stereo partly specified)
SK-OV-3 ovarian
  GI50: 21 µM
  TGI: 61.2 µM
MDA-MB-231 breast
  GI50: 15.6 µM
  TGI: 29.5 µM
SK-MEL-28 melanoma
  GI50: 17.1 µM
  TGI: 31.6 µM
SNB-75 CNS
  GI50: 11.1 µM
  TGI: 36.9 µM
MALME-3M melanoma
  GI50: 15.4 µM
  TGI: 29 µM
OVCAR-8 ovarian
  GI50: 17.9 µM
  TGI: 39.5 µM
SK-MEL-2 melanoma
  GI50: 16.2 µM
  TGI: 32.7 µM
PC-3 prostate
  GI50: 15.1 µM
  TGI: 36.1 µM
UACC-62 melanoma
  GI50: 13.4 µM
  TGI: 26.7 µM
COLO 205 colon
  GI50: 16.5 µM
  TGI: 30.1 µM
NCI-H522 lung
  GI50: 13.7 µM
  TGI: 30.3 µM
UACC-257 melanoma
  GI50: 20.4 µM
  TGI: 44.1 µM
RXF 393 renal
  GI50: 13.9 µM
  TGI: 29.3 µM
SF-295 CNS
  GI50: 16.9 µM
  TGI: 34.8 µM
RPMI-8226 leukemia
  GI50: 25.6 µM
  TGI: 79.7 µM
HS 578T breast
  GI50: 16.5 µM
  TGI: 40.2 µM
SN12C renal
  GI50: 15.3 µM
  TGI: 28.7 µM
NCI/ADR-RES ovarian
  GI50: 16.3 µM
  TGI: 33.2 µM
SNB-19 CNS
  GI50: 23.1 µM
  TGI: 78.9 µM
NCI-H226 lung
  GI50: 14.9 µM
  TGI: 30.3 µM
MCF7 breast
  GI50: 17.6 µM
  TGI: 42.6 µM
OVCAR-5 ovarian
  GI50: 15.9 µM
  TGI: 31.6 µM
DU-145 prostate
  GI50: 20.1 µM
  TGI: 42.7 µM
SK-MEL-5 melanoma
  GI50: 16.6 µM
  TGI: 30.6 µM
OVCAR-4 ovarian
  GI50: 20.8 µM
  TGI: 58.4 µM
A498 renal
  GI50: 19.9 µM
  TGI: 46.6 µM
HCT-116 colon
  GI50: 14.6 µM
  TGI: 28.2 µM
EKVX NSCLC
  GI50: 18 µM
  TGI: 47.6 µM
ACHN renal
  GI50: 25.5 µM
  TGI: 79.5 µM
NCI-H23 lung
  GI50: 16.2 µM
  TGI: 33.2 µM
K-562 leukemia
  GI50: 26.6 µM
  TGI: > 100 µM
KM12 colon
  GI50: 18.2 µM
  TGI: 38.1 µM
NCI-H460 lung
  GI50: 19 µM
  TGI: 36.3 µM
HOP-92 NSCLC
  GI50: 16 µM
  TGI: 33.8 µM
HL-60(TB) leukemia
  GI50: 19.9 µM
  TGI: 52.5 µM
U251 CNS
  GI50: 16.8 µM
  TGI: 33 µM
HCC-2998 colon
  GI50: 16.3 µM
  TGI: 32.7 µM
SF-539 CNS
  GI50: 16.9 µM
  TGI: 32.6 µM
MOLT-4 leukemia
  GI50: 23.6 µM
  TGI: 78.7 µM
OVCAR-3 ovarian
  GI50: 16.8 µM
  TGI: 35.3 µM
LOX IMVI melanoma
  GI50: 14.9 µM
  TGI: 28.1 µM
CCRF-CEM leukemia
  GI50: 26.7 µM
  TGI: 72.9 µM
UO-31 renal
  GI50: 12.9 µM
  TGI: 37.7 µM
MDA-MB-435
  GI50: 16 µM
  TGI: 30.3 µM
HCT-15 colon
  GI50: 16.1 µM
  TGI: 31.3 µM
HT29 colon
  GI50: 15.6 µM
  TGI: 32.5 µM
MDA-MB-468 breast
  GI50: 11.8 µM
  TGI: 25.8 µM
SW-620 colon
  GI50: 15.9 µM
  TGI: 31.8 µM
A549 NSCLC
  GI50: 18.5 µM
  TGI: 46.1 µM
TK-10 renal
  GI50: 19.6 µM
  TGI: 53.2 µM
SR leukemia
  GI50: 18.5 µM
  TGI: 47.7 µM
M14 melanoma
  GI50: 15.3 µM
  TGI: 28.7 µM
CAKI-1 renal
  GI50: 15.2 µM
  TGI: 43.5 µM
SF-268 CNS
  GI50: 19.5 µM
  TGI: 48.2 µM
BT-549 breast
  GI50: 16.2 µM
  TGI: 33.3 µM
786-0 renal
  GI50: 19.1 µM
  TGI: 39.7 µM
IGROV1 ovarian
  GI50: 16.7 µM
  TGI: 38.5 µM
HOP-62 NSCLC
  GI50: 14.8 µM
  TGI: 29.3 µM
T-47D breast
  GI50: 16.1 µM
  TGI: 39.6 µM

## C=Cc1cc(OC)c2c(c1)c(=O)oc1c2cc(OC)c2c(O)ccc(C3OC(C(C)O)C(O)C3O)c21 (stereo unspecified)
MDA-MB-468 breast
  GI50: 0.00491 µM
  TGI: > 1 µM
